In ChEMBL document CHEMBL1697692, “Developing structure-activity relationships for the prediction of hepatotoxicity” (Chem Res Toxicol, 2010):

Tested on: Hepatotoxicity
Experiment: Literature-mined public compounds from Greene et al multi-species hepatotoxicity modelling dataset

CCN(CC)C(=O)/C(C#N)=C/c1cc(O)c(O)c([N+](=O)[O-])c1 [ENTACAPONE]
Hepatotoxicity: WE: Weak evidence (<10 case reports) of human hepatotoxicity

Cn1c(=O)c2c(ncn2C)n(C)c1=O [CAFFEINE]
Hepatotoxicity: NE: No evidence of hepatotoxicity in any species

CCCN(CCC)C(=O)Cc1c(-c2ccc(Cl)cc2)nc2ccc(Cl)cn12 [ALPIDEM]
Hepatotoxicity: HH: Evidence of human hepatotoxicity

COc1cc(C(=O)NS(=O)(=O)c2ccccc2C)ccc1Cc1cn(C)c2ccc(NC(=O)OC3CCCC3)cc12 [ZAFIRLUKAST]
Hepatotoxicity: HH: Evidence of human hepatotoxicity

C[N+](C)(C)CCOP(=O)(O)OP(=O)([O-])OC[C@H]1O[C@@H](n2ccc(N)nc2=O)[C@H](O)[C@@H]1O [CITICOLINE]
Hepatotoxicity: NE: No evidence of hepatotoxicity in any species

CC(=O)[C@]1(O)Cc2c(O)c3c(c(O)c2[C@@H](O[C@H]2C[C@H](N)[C@H](O)[C@H](C)O2)C1)C(=O)c1ccccc1C3=O.Cl [IDARUBICIN HYDROCHLORIDE]
Hepatotoxicity: NE: No evidence of hepatotoxicity in any species

CN1CCN(C(c2ccccc2)c2ccccc2)CC1 [CYCLIZINE]
Hepatotoxicity: HH: Evidence of human hepatotoxicity

CARBOPLATIN
Hepatotoxicity: HH: Evidence of human hepatotoxicity

CN(C)[C@@H]1C(O)=C(C(N)=O)C(=O)[C@@]2(O)C(O)=C3C(=O)c4c(O)cccc4[C@@](C)(O)[C@H]3C[C@@H]12 [TETRACYCLINE]
Hepatotoxicity: HH: Evidence of human hepatotoxicity

COCCCC/C(=N\OCCN)c1ccc(C(F)(F)F)cc1 [FLUVOXAMINE]
Hepatotoxicity: HH: Evidence of human hepatotoxicity

C[C@H]1O[C@@H](O[C@H]2[C@@H](O)C[C@H](O[C@H]3[C@@H](O)C[C@H](O[C@H]4CC[C@@]5(C)[C@H](CC[C@@H]6[C@@H]5C[C@@H](O)[C@]5(C)[C@@H](C7=CC(=O)OC7)CC[C@]65O)C4)O[C@@H]3C)O[C@@H]2C)C[C@H](O)[C@@H]1O [DIGOXIN]
Hepatotoxicity: NE: No evidence of hepatotoxicity in any species

Nc1ccc(S(=O)(=O)NC(=O)c2ccccc2)cc1 [SULFABENZAMIDE]
Hepatotoxicity: NE: No evidence of hepatotoxicity in any species

CNNCc1ccc(C(=O)NC(C)C)cc1.Cl [PROCARBAZINE HYDROCHLORIDE]
Hepatotoxicity: HH: Evidence of human hepatotoxicity

Cc1nc2n(c(=O)c1CCN1CCC(c3noc4cc(F)ccc34)CC1)CCCC2 [RISPERIDONE]
Hepatotoxicity: HH: Evidence of human hepatotoxicity

Cl.O=C(O)CCCCCCNC1c2ccccc2CCc2ccccc21 [AMINEPTINE HYDROCHLORIDE]
Hepatotoxicity: HH: Evidence of human hepatotoxicity

CO[C@@]1(NC(=O)C2SC(=C(C(N)=O)C(=O)O)S2)C(=O)N2C(C(=O)O)=C(CSc3nnnn3C)CS[C@@H]21 (stereo not given in full) [CEFOTETAN]
Hepatotoxicity: NE: No evidence of hepatotoxicity in any species

CO[C@H]1C[C@H](O[C@H]2[C@H](C)[C@@H](O[C@@H]3O[C@H](C)C[C@H](N(C)C)[C@H]3OC(C)=O)[C@@H](C)C[C@@]3(CO3)C(=O)[C@H](C)[C@@H](OC(C)=O)[C@@H](C)[C@@H](C)OC(=O)[C@@H]2C)O[C@@H](C)[C@@H]1OC(C)=O [TROLEANDOMYCIN]
Hepatotoxicity: HH: Evidence of human hepatotoxicity

CCSCC[C@H](N)C(=O)O (stereo in doubt; form 2) [ETHIONINE]
Hepatotoxicity: AH: Evidence for animal hepatotoxicity but not tested in humans

N[C@H](C(=O)O)[C@@H]1CC(Cl)=NO1 [ACIVICIN]
Hepatotoxicity: NE: No evidence of hepatotoxicity in any species

C[C@H](CCC(=O)O)[C@H]1CC[C@H]2[C@@H]3[C@H](O)C[C@@H]4C[C@H](O)CC[C@]4(C)[C@H]3CC[C@]12C [CHENODIOL]
Hepatotoxicity: HH: Evidence of human hepatotoxicity
